According to the supplement of paper PMC11061612:

How the values were obtained:
[1] = tested on: COR-L88 (Small Cell Lung Carcinoma); assay: Bliss excess, mean over the matrix (fraction); higher = more synergy
How it was run: (§1)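 After 24 hours at 37°C and 5% CO2 in 1536-well plates, cells in DMEM/F12 or RPMI plus 10% FBS received two-drug dose matrices for 72 hours. Viability came from CellTiter-Glo 2.0 luminescence and was scaled as inhibition, anchored at 0 by vehicle wells and at 1 by blank wells. Combination Emax is taken as the second-highest inhibition in the matrix, and Bliss excess as the observed combination effect less EA + EB − EA·EB, with EA and EB the single-agent effects.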

[2] = tested on: CPC-N (Small Cell Lung Carcinoma); assay: as above
How it was run: as §1

[3] = tested on: HPAF-II (Pancreatic Carcinoma); assay: as above
How it was run: as §1

[4] = tested on: LCLC-103H (Non-Small Cell Lung Carcinoma); assay: as above
How it was run: as §1

[5] = tested on: MONO-MAC-6 (Acute Myeloid Leukemia); assay: as above
How it was run: as §1

[6] = tested on: SK-CO-1 (Colorectal Carcinoma); assay: as above
How it was run: as §1

[7] = tested on: C-33-A (Cervical Carcinoma); assay: combination Emax (second highest fraction inhibited in the dose matrix, 72 h); higher = more inhibition; extreme values may be limits of the assay
How it was run: as §1

ES6 (Ewing's Sarcoma) = assay: as above
How it was run: as §1

GAK (Melanoma) = assay: as above
How it was run: as §1

IST-MEL1 (Melanoma) = assay: as above
How it was run: as §1

[8] = tested on: LCLC-103H (Non-Small Cell Lung Carcinoma); assay: as above
How it was run: as §1

[9] = tested on: LS-1034 (Colorectal Carcinoma); assay: as above
How it was run: as §1

[10] = tested on: MDA-MB-415 (Breast Carcinoma); assay: as above
How it was run: as §1

[11] = tested on: MONO-MAC-6 (Acute Myeloid Leukemia); assay: as above
How it was run: as §1

[12] = tested on: NAMALWA (Burkitt's Lymphoma); assay: as above
How it was run: as §1

NCI-H226 (Mesothelioma) = assay: as above
How it was run: as §1

[13] = tested on: RCC-JW (Kidney Carcinoma); assay: as above
How it was run: as §1

[14] = tested on: SCC-4 (Oral Cavity Carcinoma); assay: as above
How it was run: as §1

[15] = tested on: SK-CO-1 (Colorectal Carcinoma); assay: as above
How it was run: as §1

[16] = tested on: SKG-IIIa (Cervical Carcinoma); assay: as above
How it was run: as §1
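Wherever Bliss excess, mean over the matrix is given: after 72 h of two-drug dosing.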

## C[C@@H](Nc1cc(F)cc(F)c1)c1cc(C(=O)N(C)C)cc2c(=O)cc(N3CCOCC3)oc12 [AZD8186] + CC(=O)c1c(C)c2cnc(Nc3ccc(N4CCNCC4)cn3)nc2n(C2CCCC2)c1=O [Palbociclib] (first compound max 10 µM, 7x7, partner max 10 µM)
[1]
  Bliss excess: 0.0025
[2]
  Bliss excess: -0.0198
[3]
  Bliss excess: 0.0384
[4]
  Bliss excess: -0.0038
[5]
  Bliss excess: 0.0726
[6]
  Bliss excess: 0.0163
[7]
  combination Emax: 0.353
ES6 (Ewing's Sarcoma)
  combination Emax: 0.412
GAK (Melanoma)
  combination Emax: 0.448
IST-MEL1 (Melanoma)
  combination Emax: 0.545
[8]
  combination Emax: 0.476
[9]
  combination Emax: 0.438
[10]
  combination Emax: 0.794
[11]
  combination Emax: 0.654
[12]
  combination Emax: 0.616
NCI-H226 (Mesothelioma)
  combination Emax: 0.297
[13]
  combination Emax: 0.588
[14]
  combination Emax: 0.327
[15]
  combination Emax: 0.749
[16]
  combination Emax: 0.235

## C[C@@H](Oc1cc(-c2cnn(C3CCNCC3)c2)cnc1N)c1c(Cl)ccc(F)c1Cl [Crizotinib] + CC1=C(C(=CC=C1)Cl)NC(=O)C2=CN=C(S2)NC3=CC(=NC(=N3)C)N4CCN(CC4)CCO [Dasatinib] (first compound max 10 µM, 7x7, partner max 2 µM)
[1]
  Bliss excess: -0.0039
[2]
  Bliss excess: -0.0989
[3]
  Bliss excess: 0.0578
[4]
  Bliss excess: 0.01
[5]
  Bliss excess: 0.014
[6]
  Bliss excess: 0.0048
[7]
  combination Emax: 0.582
ES6 (Ewing's Sarcoma)
  combination Emax: 0.751
GAK (Melanoma)
  combination Emax: 0.694
IST-MEL1 (Melanoma)
  combination Emax: 0.76
[8]
  combination Emax: 0.722
[9]
  combination Emax: 0.835
[10]
  combination Emax: 0.323
[11]
  combination Emax: 0.947
[12]
  combination Emax: 0.934
NCI-H226 (Mesothelioma)
  combination Emax: 0.558
[13]
  combination Emax: 0.851
[14]
  combination Emax: 0.913
[15]
  combination Emax: 0.954
[16]
  combination Emax: 0.734

## C[C@@H](Oc1cc(-c2cnn(C3CCNCC3)c2)cnc1N)c1c(Cl)ccc(F)c1Cl [Crizotinib] + Cn1cnc2c(F)c(Nc3ccc(Br)cc3Cl)c(C(=O)NOCCO)cc21 [Selumetinib] (first compound max 10 µM, 7x7, partner max 10 µM)
[1]
  Bliss excess: -0.0464
[2]
  Bliss excess: -0.0663
[3]
  Bliss excess: 0.0008
[4]
  Bliss excess: -0.0221
[5]
  Bliss excess: 0.023
[6]
  Bliss excess: -0.043
[7]
  combination Emax: 0.421
ES6 (Ewing's Sarcoma)
  combination Emax: 0.59
GAK (Melanoma)
  combination Emax: 0.851
IST-MEL1 (Melanoma)
  combination Emax: 0.454
[8]
  combination Emax: 0.412
[9]
  combination Emax: 0.79
[10]
  combination Emax: 0.275
[11]
  combination Emax: 0.991
[12]
  combination Emax: 0.937
NCI-H226 (Mesothelioma)
  combination Emax: 0.393
[13]
  combination Emax: 0.665
[14]
  combination Emax: 0.496
[15]
  combination Emax: 0.989
[16]
  combination Emax: 0.254

## CS(=O)(=O)CCNCc1ccc(-c2ccc3ncnc(Nc4ccc(OCc5cccc(F)c5)c(Cl)c4)c3c2)o1 [Lapatinib] + Cn1cnc2c(F)c(Nc3ccc(Br)cc3Cl)c(C(=O)NOCCO)cc21 [Selumetinib] (first compound max 10 µM, 7x7, partner max 10 µM)
[1]
  Bliss excess: -0.0301
[2]
  Bliss excess: -0.0085
[3]
  Bliss excess: 0.109
[4]
  Bliss excess: -0.0744
[5]
  Bliss excess: 0.0017
[6]
  Bliss excess: 0.0335
[7]
  combination Emax: 0.55
ES6 (Ewing's Sarcoma)
  combination Emax: 0.553
GAK (Melanoma)
  combination Emax: 0.722
IST-MEL1 (Melanoma)
  combination Emax: 0.543
[8]
  combination Emax: 0.309
[9]
  combination Emax: 0.727
[10]
  combination Emax: 0.389
[11]
  combination Emax: 0.437
[12]
  combination Emax: 0.419
NCI-H226 (Mesothelioma)
  combination Emax: 0.228
[13]
  combination Emax: 0.988
[14]
  combination Emax: 0.557
[15]
  combination Emax: 0.886
[16]
  combination Emax: 0.393

## CS(=O)(=O)CCNCc1ccc(-c2ccc3ncnc(Nc4ccc(OCc5cccc(F)c5)c(Cl)c4)c3c2)o1 [Lapatinib] + NC1(c2ccc(-c3nc4ccn5c(=O)[nH]nc5c4cc3-c3ccccc3)cc2)CCC1 [MK-2206] (first compound max 10 µM, 7x7, partner max 10 µM)
[1]
  Bliss excess: 0.0151
[2]
  Bliss excess: -0.0202
[3]
  Bliss excess: 0.0089
[4]
  Bliss excess: -0.0428
[5]
  Bliss excess: 0.0302
[6]
  Bliss excess: 0.0289
[7]
  combination Emax: 0.895
ES6 (Ewing's Sarcoma)
  combination Emax: 0.879
GAK (Melanoma)
  combination Emax: 0.872
IST-MEL1 (Melanoma)
  combination Emax: 0.886
[8]
  combination Emax: 0.538
[9]
  combination Emax: 0.919
[10]
  combination Emax: 0.972
[11]
  combination Emax: 0.671
[12]
  combination Emax: 0.909
NCI-H226 (Mesothelioma)
  combination Emax: 0.164
[13]
  combination Emax: 0.964
[14]
  combination Emax: 0.719
[15]
  combination Emax: 0.793
[16]
  combination Emax: 0.36

## O=C(c1cc(Cc2n[nH]c(=O)c3ccccc23)ccc1F)N1CCN(C(=O)C2CC2)CC1 [Olaparib] + CC1(C)CCC(CN2CCN(c3ccc(C(=O)NS(=O)(=O)c4ccc(NCC5CCOCC5)c([N+](=O)[O-])c4)c(Oc4cnc5[nH]ccc5c4)c3)CC2)=C(c2ccc(Cl)cc2)C1 [Venetoclax] (first compound max 10 µM, 7x7, partner max 1 µM)
[1]
  Bliss excess: 0.0604
[2]
  Bliss excess: -0.0439
[3]
  Bliss excess: -0.0183
[4]
  Bliss excess: -0.0212
[5]
  Bliss excess: 0.0368
[6]
  Bliss excess: -0.0405
[7]
  combination Emax: 0.305
ES6 (Ewing's Sarcoma)
  combination Emax: 0.173
GAK (Melanoma)
  combination Emax: 0.0703
IST-MEL1 (Melanoma)
  combination Emax: 0.628
[8]
  combination Emax: 0.155
[9]
  combination Emax: 0.008
[10]
  combination Emax: 0.179
[11]
  combination Emax: 0.249
[12]
  combination Emax: 0.456
NCI-H226 (Mesothelioma)
  combination Emax: 0.0963
[13]
  combination Emax: 0.163
[14]
  combination Emax: 0.0794
[15]
  combination Emax: 0.769
[16]
  combination Emax: 0.147
